Test results reported in patent US7566553B2, “Microorganism of Escherichia Sp, or Corynebacterium Sp, comprising foreign NADP dependent glyceraldehyde-3-phosphate dehydrogenase gene and method for producing L-lysine using the same” (CJ Corporation, priority 2004, dated 2009).

Columns and labels:
Assay in all cases: Resistance against lysine analogue AEC, relative growth rate in M9 minimum medium
Format in all cases: cell-based, Escherichia coli
[1] = system: E. coli strain TF1; conditions: strain TE1 (so in the source), absorbance at 562 nm, relative to growth at zero AEC
Description: (§1) An Escherichia coli strain TF1 (Korean laid-open Patent No. 1992-0012444) was grown until the strain entered an exponential growth phase and suspended in a 0.1M phosphate buffer (pH 7.0) or 0.1M citrate buffer solution (pH 5.5). N-methyl-N′-nitro-nitrosoguanidine was added into the suspension to a final concentration of 200-500 μg/mL, reacted at 30° C. for 10-30 minutes, and inoculated into a minimum agar plate containing 1-30 g/L of a lysine analogue (AEC: S-(2-aminoethyl)-L-cysteine) to select an analogue-resistant strain. This strain was named “CJ40225”. The resistance of the strain against the lysine analogue was tested using an M9 minimum medium, and the relative growth rate was measured.
(§2) The used M9 minimum medium contained 4 g of glucose, 12.8 g of Na2HPO4.7H2O, 3 g of KH2PO4, 0.5 g of NaCl, and 1 g of NH4Cl per 1 liter of water.

[2] = system: Wild type E. coli strain W3110; conditions: absorbance at 562 nm, relative to growth at zero AEC
Description: as §1, §2

[3] = system: E. coli strain CJ40225; conditions: absorbance at 562 nm, relative to growth at zero AEC
Description: as §1, §2

## NCCSC[C@H](N)C(=O)O [AEC, S-(2-aminoethyl)-L-cysteine]
[1]; added AEC 5 g/L
  Relative Growth Rate (%): 103.5%
[1]; added AEC 10 g/L
  Relative Growth Rate (%): 128.9%
[1]; added AEC 20 g/L
  Relative Growth Rate (%): 112.5%
[1]; added AEC 40 g/L
  Relative Growth Rate (%): 17.5%
[2]; added AEC 5 g/L
  Relative Growth Rate (%): 66.3%
[2]; added AEC 10 g/L
  Relative Growth Rate (%): 39.8%
[2]; added AEC 20 g/L
  Relative Growth Rate (%): 7.4%
[3]; added AEC 5 g/L
  Relative Growth Rate (%): 124.3%
[3]; added AEC 10 g/L
  Relative Growth Rate (%): 88.4%
[3]; added AEC 20 g/L
  Relative Growth Rate (%): 89.2%
[3]; added AEC 40 g/L
  Relative Growth Rate (%): 73.9%
